Results published in ChEMBL document CHEMBL3045812, “Synthesis of fatty acid Schiff base esters as potential antimicrobial and chemotherapeutic agents” (Med Chem Res, 2013).
In brackets after ≈: the same amount, converted by molar mass. Activity calls are given as the source filed them. The rule behind the calls is not given here.

Assays:
Raoultella planticola = test: Antibacterial activity against Raoultella planticola MTCC 530 at 1.4 to 300 ug/ml after 24 hr by microtiter broth dilution method; type: functional, organism-based
Escherichia coli = test: Antibacterial activity against Escherichia coli MTCC 739 at 1.4 to 300 ug/ml after 24 hr by microtiter broth dilution method; type: functional, organism-based
Micrococcus luteus = test: Antibacterial activity against Micrococcus luteus MTCC 2470 at 1.4 to 300 ug/ml after 24 hr by microtiter broth dilution method; type: functional, organism-based
Pseudomonas aeruginosa = test: Antibacterial activity against Pseudomonas aeruginosa MTCC 2453 after 24 hr by microtiter broth dilution method; type: functional
Staphylococcus aureus [1] = test: Antibacterial activity against Staphylococcus aureus MLS16 MTCC 2940 after 24 hr by microtiter broth dilution method; type: functional; settings: MLS16 MTCC 2940, 24 h
Bacillus subtilis = test: Antibacterial activity against Bacillus subtilis MTCC 121 after 24 hr by microtiter broth dilution method; type: functional
Staphylococcus aureus [2] = test: Antibacterial activity against Staphylococcus aureus MTCC 96 after 24 hr by microtiter broth dilution method; type: functional; settings: MTCC 96, 24 h
N2a = test: Cytotoxicity against Mus musculus (mouse) Neuro2a cells by tetrazolium-reduction assay; type: functional, cell-based
HeLa = test: Cytotoxicity against Homo sapiens (human) HeLa cells by tetrazolium-reduction assay; type: functional, cell-based
HepG2 = test: Cytotoxicity against Homo sapiens (human) HepG2 cells by tetrazolium-reduction assay; type: functional, cell-based
A549 = test: Cytotoxicity against Homo sapiens (human) A549 cells by tetrazolium-reduction assay; type: functional, cell-based
Candida albicans [3] = test: Antifungal activity against Candida albicans MTCC 227 at 1.4 to 300 ug/ml after 24 hr by microtiter broth dilution method; type: functional, organism-based
Candida albicans [4] = test: Antifungal activity against Candida albicans MTCC 854 at 1.4 to 300 ug/ml after 24 hr by microtiter broth dilution method; type: functional, organism-based
MDA-MB-231 = test: Cytotoxicity against Homo sapiens (human) MDA-MB-231 cells by tetrazolium-reduction assay; type: functional, cell-based
MCF7 = test: Cytotoxicity against Homo sapiens (human) MCF7 cells by tetrazolium-reduction assay; type: functional, cell-based
[Candida] aaseri [5] = Antifungal activity against Candida aaseri MTCC 1962 at 1.4 to 300 ug/ml after 24 hr by microtiter broth dilution method; type: functional, organism-based
Candida parapsilosis [6] = test: Antifungal activity against Candida parapsilosis MTCC 1744 at 1.4 to 300 ug/ml after 24 hr by microtiter broth dilution method; type: functional, organism-based
Nakaseomyces glabratus [7] = test: Antifungal activity against Candida glabrata MTCC 3019 at 1.4 to 300 ug/ml after 24 hr by microtiter broth dilution method; type: functional, organism-based
Candida albicans [8] = test: Antifungal activity against Candida albicans MTCC 3017 at 1.4 to 300 ug/ml after 24 hr by microtiter broth dilution method; type: functional, organism-based
Candida albicans [9] = test: Antifungal activity against Candida albicans MTCC 3018 at 1.4 to 300 ug/ml after 24 hr by microtiter broth dilution method; type: functional, organism-based
Candida albicans [10] = test: Antifungal activity against Candida albicans MTCC 3958 at 1.4 to 300 ug/ml after 24 hr by microtiter broth dilution method; type: functional, organism-based
Candida albicans [11] = test: Antifungal activity against Candida albicans MTCC 1637 at 1.4 to 300 ug/ml after 24 hr by microtiter broth dilution method; type: functional, organism-based
Candida albicans [12] = test: Antifungal activity against Candida albicans MTCC 183 at 1.4 to 300 ug/ml after 24 hr by microtiter broth dilution method; type: functional, organism-based
Candida albicans [13] = test: Antifungal activity against Candida albicans MTCC 7315 at 1.4 to 300 ug/ml after 24 hr by microtiter broth dilution method; type: functional, organism-based
Candida albicans [14] = test: Antifungal activity against Candida albicans MTCC 7315 after 24 hr by microtiter broth dilution method; type: functional; settings: MTCC 7315, 24 h
Candida albicans [15] = test: Antifungal activity against Candida albicans MTCC 227 after 24 hr by microtiter broth dilution method; type: functional; settings: MTCC 227, 24 h
Candida albicans [16] = test: Antifungal activity against Candida albicans MTCC 854 after 24 hr by microtiter broth dilution method; type: functional; settings: MTCC 854, 24 h
Pichia sporocuriosa = test: Antifungal activity against Issatchenkia hanoiensis MTCC 4755 after 24 hr by microtiter broth dilution method; type: functional
[Candida] aaseri [17] = Antifungal activity against Candida aaseri MTCC 1962 after 24 hr by microtiter broth dilution method; type: functional
Pichia kudriavzevii = test: Antifungal activity against Pichia kudriavzevii MTCC 3020 after 24 hr by microtiter broth dilution method; type: functional
Nakaseomyces glabratus [18] = test: Antifungal activity against Candida glabrata MTCC 3019 after 24 hr by microtiter broth dilution method; type: functional
Candida parapsilosis [19] = test: Antifungal activity against Candida parapsilosis MTCC 1744 after 24 hr by microtiter broth dilution method; type: functional
Candida albicans [20] = test: Antifungal activity against Candida albicans MTCC 3018 after 24 hr by microtiter broth dilution method; type: functional; settings: MTCC 3018, 24 h
Candida albicans [21] = test: Antifungal activity against Candida albicans MTCC 3017 after 24 hr by microtiter broth dilution method; type: functional
Candida albicans [22] = test: Antifungal activity against Candida albicans MTCC 3958 after 24 hr by microtiter broth dilution method; type: functional; settings: MTCC 3958, 24 h
Candida albicans [23] = test: Antifungal activity against Candida albicans MTCC 1637 after 24 hr by microtiter broth dilution method; type: functional; settings: MTCC 1637, 24 h
Candida albicans [24] = test: Antifungal activity against Candida albicans MTCC 183 after 24 hr by microtiter broth dilution method; type: functional; settings: MTCC 183, 24 h

SMILES | Activity (Raoultella planticola) | Activity (Escherichia coli) | Activity (Micrococcus luteus) | MIC (Pseudomonas aeruginosa; MTCC 2453, 24 h) | MIC (Staphylococcus aureus [1]) | MIC (Bacillus subtilis) | MIC (Staphylococcus aureus [2]) | Activity (N2a) | Activity (HeLa) | Activity (HepG2) | Activity (A549) | Activity (Candida albicans [3]) | Activity (Candida albicans [4]) | IC50 (MDA-MB-231) | IC50 (MCF7; mcf7) | Activity ([Candida] aaseri [5]) | Activity (Candida parapsilosis [6]) | Activity (Nakaseomyces glabratus [7]) | Activity (Candida albicans [8]) | Activity (Candida albicans [9]) | further results
CCCCCCCCCCCCCCCCCC(=O)Oc1ccc(/C=N/Cc2cccnc2)cc1 | inactive | inactive | inactive | 300 µg/mL (≈ 627 µM) | 300 µg/mL (≈ 627 µM) | inactive | 300 µg/mL (≈ 627 µM) | inactive | inactive | inactive | inactive | inactive | inactive | 11.5 µM | Not Active | inactive | inactive | inactive | inactive | inactive | Activity (Candida albicans [10]): inactive; Activity (Candida albicans [11]): inactive; Activity (Candida albicans [12]): inactive; Activity (Candida albicans [13]): inactive
NC[C@@H]1O[C@H](O[C@H]2[C@@H](O)[C@H](O[C@@H]3[C@@H](O)[C@H](N)C[C@H](N)[C@H]3O[C@H]3O[C@H](CN)[C@@H](O)[C@H](O)[C@H]3N)O[C@@H]2CO)[C@H](N)[C@@H](O)[C@@H]1O [FRAMYCETIN] |  |  |  | 18.8 µg/mL (≈ 30.5 µM) | 18.8 µg/mL (≈ 30.5 µM) |  | 18.8 µg/mL (≈ 30.5 µM) |  |  |  |  |  |  |  |  |  |  |  |  |  | MIC (Bacillus subtilis; MTCC 121, 24 h): 18.8 µg/mL (≈ 30.5 µM)
CCCCCCCCCC(=O)Oc1ccc(/C=N/Cc2cccnc2)cc1 | inactive | inactive | inactive | 75 µg/mL (≈ 205 µM) | 300 µg/mL (≈ 819 µM) | inactive | 37.5 µg/mL (≈ 102 µM) | inactive | inactive | inactive | inactive |  |  |  |  |  |  |  |  |  | MIC (Candida albicans [14]): 300 µg/mL (≈ 819 µM); MIC (Candida albicans [15]): 300 µg/mL (≈ 819 µM); MIC (Candida albicans [16]): 300 µg/mL (≈ 819 µM); MIC (Pichia sporocuriosa; MTCC 4755, 24 h): 75 µg/mL (≈ 205 µM); MIC ([Candida] aaseri [17]; Yamadazyma aaseri, MTCC 1962, 24 h): 75 µg/mL (≈ 205 µM); MIC (Pichia kudriavzevii; MTCC 3020, 24 h): 150 µg/mL (≈ 409 µM); MIC (Nakaseomyces glabratus [18]; MTCC 3019, 24 h): 150 µg/mL (≈ 409 µM); MIC (Candida parapsilosis [19]; Lodderomyces parapsilosis, MTCC 1744, 24 h): 150 µg/mL (≈ 409 µM); MIC (Candida albicans [20]): 75 µg/mL (≈ 205 µM); MIC (Candida albicans [21]): inactive; MIC (Candida albicans [22]): 300 µg/mL (≈ 819 µM); MIC (Candida albicans [23]): 300 µg/mL (≈ 819 µM); MIC (Candida albicans [24]): 300 µg/mL (≈ 819 µM)
CCCCCCCCCCCCCC(=O)Oc1ccc(/C=N/Cc2cccnc2)cc1 | inactive | inactive | inactive |  | 75 µg/mL (≈ 177 µM) | inactive | 75 µg/mL (≈ 177 µM) | inactive | inactive | inactive | inactive |  |  | 26.6 µM | Not Active |  |  |  |  |  | MIC (Candida albicans [14]): 300 µg/mL (≈ 710 µM); MIC (Candida albicans [15]): 300 µg/mL (≈ 710 µM); MIC (Candida albicans [16]): 300 µg/mL (≈ 710 µM); MIC (Pseudomonas aeruginosa): inactive; MIC (Pichia sporocuriosa): inactive; MIC ([Candida] aaseri [17]): inactive; MIC (Pichia kudriavzevii): inactive; MIC (Nakaseomyces glabratus [18]): inactive; MIC (Candida parapsilosis [19]): inactive; MIC (Candida albicans [20]): 300 µg/mL (≈ 710 µM); MIC (Candida albicans [21]; MTCC 3017, 24 h): 300 µg/mL (≈ 710 µM); MIC (Candida albicans [22]): 300 µg/mL (≈ 710 µM); MIC (Candida albicans [23]): 300 µg/mL (≈ 710 µM); MIC (Candida albicans [24]): 300 µg/mL (≈ 710 µM)
CCCCCCCCCCCC(=O)Oc1ccc(/C=N/Cc2cccnc2)cc1 | inactive | inactive | inactive |  | 150 µg/mL (≈ 380 µM) | inactive | 150 µg/mL (≈ 380 µM) | inactive | inactive | inactive | inactive | inactive | inactive | 18.9 µM |  | inactive | inactive | inactive | inactive | inactive | MIC (Pseudomonas aeruginosa): inactive; IC50 (MCF7; Homo sapiens, MCF7, read-out: IC50): 17.6 µM; Activity (Candida albicans [10]): inactive; Activity (Candida albicans [11]): inactive; Activity (Candida albicans [12]): inactive; Activity (Candida albicans [13]): inactive
